Test results published in patent publication EP0445735A1, “Melanogenesis-inhibiting endermic preparation” (Sansho Seiyaku Co., Ltd., priority 1990, dated 1991).

Test system: B16 cells
Test: Test of whitening B16 cells (whiteness of cell pellets observed with the naked eye)
Type: cell-based
Conditions: for EC (whiteness 3+): Mus musculus, whiteness of cells 3 + (gray), read-out: Concentration of the test compound to give whiteness of cells of being 3 + (gray); for Whiteness of Cells: cell pellets after five days
Method: PMC was added to Eagle's MEM medium, to which a fetal calf serum had been added, in a concentration of 100, 50, 20 or 10 µM. 1 × 10⁵ B16 cells were inoculated into the medium. Three days after the inoculation, the medium was exchanged for a fresh one.
Standards of evaluation of whiteness of cells are as follows: 5 + : White 4 + : White to Gray 3 + : Gray 2 + : Gray to Black 1 + : Black (but somewhat paler than control) - : Black

SMILES | EC (whiteness 3+) | Whiteness of Cells (Concentration 10 µM) | Whiteness of Cells (Concentration 20 µM) | Whiteness of Cells (Concentration 50 µM) | Whiteness of Cells (Concentration 100 µM)
COC1(C)CCc2c(C)c(O)c(C)c(C)c2O1 (stereo not drawn) [(3), 2,5,7,8-Tetramethyl-2-methoxzy-6-hydroxychroman] | 50 µM |  |  |  | 
Cc1c2c(c(C(C)C)c(O)c1C(C)C)CCC(C)(C)O2 [(4), 2,2,8-Trimethyl-5,7-diisopropyl-6-hydroxychroman] | 20 µM |  |  |  | 
Cc1c(C)c2c(c(C)c1O)CCC(C)(CO)O2 (stereo not drawn) [(5), 2,5,7,8-Tetramethyl-6-hydroxy-2-hydroxymethylchroman] | 40 µM |  |  |  | 
CCOC(=O)CC1(C)CCc2c(C)c(O)c(C)c(C)c2O1 (stereo not drawn) [(6), Ethyl 2,5,7,8-tetramethyl-6-hydroxychroman-2-acetate] | 30 µM |  |  |  | 
Cc1c(C)c2c(c(C)c1O)CCC(C)(C)O2 [PMC, 2,2,5,7,8-Pentamethyl-6-hydroxychroman] | 50 µM | 1 + | 2 + | 3 + | 4 +
